#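 Values below derive from 48-hour exposures of cells grown in 96-well plates, with endpoints linearly interpolated between the two concentrations bracketing the appropriate inhibition level. TGI: total growth inhibition.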
# Tested on: SN12K1 renal
# Test: NCI-60 cell line screen, 48 h
smiles,measurement,value
COC(=O)NC1C(C)OC(OC2C/C=C(/C)C3C=CC4C(OC5CC(OC6CCC(OC7CC(O)C(OC8CCC(O)C(C)O8)C(C)O7)C(C)O6)C(OC(C)=O)C(C)O5)C(C)CC(C)C4C3(C)/C(O)=C3/C(=O)OC4(CC(C=O)=CC(O)C4/C=C\2C)C3=O)CC1(C)[N+](=O)[O-] (stereo unspecified),TGI,753 nM

# From PubChem BioAssay (NCI)
